Source: PubChem BioAssay AID1963843 (Molecular Pharmacology Branch, DTP, NCI, 2024)

Test system: 616215-338-R-J1-PDC complex spheroid viability
Assay: Anticancer human tumor 616215-338-R-J1-PDC patient-derived colon adenocarcinoma cell line growth inhibition [POLQ]
Conditions: for IC50: curve of first compound; for viability, T/C: stronger effect = lower value
How it was run: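 Patient-derived tumour cells were co-cultured with HUVEC and mesenchymal stem cells as multicellular spheroids at 37 °C. They were treated with POLQ inhibitors (novobiocin, ART-558, RP6685) alone or combined with other agents. Top concentrations were at or near clinical Cmax (otherwise 10 microM; SN-38 at 1 microM), decreasing in half-log steps.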

[1] = second compound 0.0316 µM, first compound 0.0316 µM
[2] = second compound 0.0316 µM, first compound 0.1 µM
[3] = second compound 0.0316 µM, first compound 0.316 µM
[4] = second compound 0.0316 µM, first compound 1 µM
[5] = second compound 0.1 µM, first compound 0.0316 µM
[6] = second compound 0.1 µM, first compound 0.1 µM
[7] = second compound 0.1 µM, first compound 0.316 µM
[8] = second compound 0.1 µM, first compound 1 µM
[9] = second compound 0.316 µM, first compound 0.0316 µM
[10] = second compound 0.316 µM, first compound 0.1 µM
[11] = second compound 0.316 µM, first compound 0.316 µM
[12] = second compound 0.316 µM, first compound 1 µM
[13] = second compound 1 µM, first compound 0.0316 µM
[14] = second compound 1 µM, first compound 0.1 µM
[15] = second compound 1 µM, first compound 0.316 µM
[16] = second compound 1 µM, first compound 1 µM
[17] = second compound 3.16 µM, first compound 0.0316 µM
[18] = second compound 3.16 µM, first compound 0.1 µM
[19] = second compound 3.16 µM, first compound 0.316 µM
[20] = second compound 3.16 µM, first compound 1 µM
[21] = second compound 10 µM, first compound 0.0316 µM
[22] = second compound 10 µM, first compound 0.1 µM
[23] = second compound 10 µM, first compound 0.316 µM
[24] = second compound 10 µM, first compound 1 µM
[25] = second compound 0.0316 µM, first compound 3.16 µM
[26] = second compound 0.0316 µM, first compound 10 µM
[27] = second compound 0.1 µM, first compound 3.16 µM
[28] = second compound 0.1 µM, first compound 10 µM
[29] = second compound 0.316 µM, first compound 3.16 µM
[30] = second compound 0.316 µM, first compound 10 µM
[31] = second compound 1 µM, first compound 3.16 µM
[32] = second compound 1 µM, first compound 10 µM
[33] = second compound 3.16 µM, first compound 3.16 µM
[34] = second compound 3.16 µM, first compound 10 µM
[35] = second compound 10 µM, first compound 3.16 µM
[36] = second compound 10 µM, first compound 10 µM
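Further: spheroids exposed to compounds for one week before readout.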
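Wherever viability, T/C is given: percent viability relative to DMSO vehicle wells taken as 100%.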

**Q.** Which IC50 (second compound 0.0316 µM) does the source give for CCc1c2c(nc3ccc(O)cc13)-c1cc3c(c(=O)n1C2)COC(=O)[C@]3(O)CC + Cc1cccc(N(C)C(=O)C2C(O)CCN2c2nc(C)cc(C(F)(F)F)c2C#N)c1 here?
**A.** 0.0872 µM

**Q.** And the IC50 (second compound 0.1 µM)?
**A.** 0.0912 µM

**Q.** What about the IC50 (second compound 0.316 µM) of the same compound?
**A.** 0.0845 µM

**Q.** And the IC50 (second compound 1 µM)?
**A.** 0.0786 µM

**Q.** What about the IC50 (second compound 3.16 µM) of the same compound?
**A.** 0.0659 µM

**Q.** What about the IC50 (second compound 10 µM) of the same compound?
**A.** 0.0474 µM

**Q.** What about the viability, T/C (second compound 0.0316 µM, first compound 0.00316 µM) of the same compound?
**A.** 104%

**Q.** And the viability, T/C (second compound 0.0316 µM, first compound 0.01 µM)?
**A.** 97%

**Q.** What about the viability, T/C [1] of the same compound?
**A.** 72.8%

**Q.** What about the viability, T/C [2] of the same compound?
**A.** 49.3%

**Q.** And the viability, T/C [3]?
**A.** 24.6%

**Q.** What about the viability, T/C [4] of the same compound?
**A.** 20.8%

**Q.** And the viability, T/C (second compound 0.1 µM, first compound 0.00316 µM)?
**A.** 114%

**Q.** And the viability, T/C (second compound 0.1 µM, first compound 0.01 µM)?
**A.** 90.5%

**Q.** And the viability, T/C [5]?
**A.** 71.9%

**Q.** And the viability, T/C [6]?
**A.** 44.5%

**Q.** And the viability, T/C [7]?
**A.** 33.5%

**Q.** And the viability, T/C [8]?
**A.** 16.1%

**Q.** And the viability, T/C (second compound 0.316 µM, first compound 0.00316 µM)?
**A.** 109%

**Q.** And the viability, T/C (second compound 0.316 µM, first compound 0.01 µM)?
**A.** 87.1%

**Q.** And the viability, T/C [9]?
**A.** 69.7%

**Q.** What about the viability, T/C [10] of the same compound?
**A.** 48.1%

**Q.** And the viability, T/C [11]?
**A.** 26.9%

**Q.** And the viability, T/C [12]?
**A.** 18.6%

**Q.** And the viability, T/C (second compound 1 µM, first compound 0.00316 µM)?
**A.** 111%

**Q.** And the viability, T/C (second compound 1 µM, first compound 0.01 µM)?
**A.** 92.9%

**Q.** And the viability, T/C [13]?
**A.** 79.9%

**Q.** What about the viability, T/C [14] of the same compound?
**A.** 40.1%

**Q.** And the viability, T/C [15]?
**A.** 26%

**Q.** What about the viability, T/C [16] of the same compound?
**A.** 18.7%

**Q.** What about the viability, T/C (second compound 3.16 µM, first compound 0.00316 µM) of the same compound?
**A.** 116%

**Q.** What about the viability, T/C (second compound 3.16 µM, first compound 0.01 µM) of the same compound?
**A.** 80.7%

**Q.** What about the viability, T/C [17] of the same compound?
**A.** 67.8%

**Q.** And the viability, T/C [18]?
**A.** 41.6%

**Q.** What about the viability, T/C [19] of the same compound?
**A.** 27.5%

**Q.** What about the viability, T/C [20] of the same compound?
**A.** 22.1%

**Q.** And the viability, T/C (second compound 10 µM, first compound 0.00316 µM)?
**A.** 97.7%

**Q.** And the viability, T/C (second compound 10 µM, first compound 0.01 µM)?
**A.** 68.7%

**Q.** What about the viability, T/C [21] of the same compound?
**A.** 62.3%

**Q.** And the viability, T/C [22]?
**A.** 39%

**Q.** What about the viability, T/C [23] of the same compound?
**A.** 25%

**Q.** And the viability, T/C [24]?
**A.** 23.1%

**Q.** For COc1cc(C2c3cc4c(cc3C(OC3OC5COC(C)OC5C(O)C3O)C3COC(=O)C23)OCO4)cc(OC)c1O (stereo unspecified) + Cc1cccc(N(C)C(=O)C2C(O)CCN2c2nc(C)cc(C(F)(F)F)c2C#N)c1, which IC50 (second compound 0.0316 µM) is on record?
**A.** > 10 µM

**Q.** What about the IC50 (second compound 0.1 µM) of the same compound?
**A.** > 10 µM

**Q.** What about the IC50 (second compound 0.316 µM) of the same compound?
**A.** 9.66 µM

**Q.** What about the IC50 (second compound 1 µM) of the same compound?
**A.** 9.43 µM

**Q.** What about the IC50 (second compound 3.16 µM) of the same compound?
**A.** > 10 µM

**Q.** And the IC50 (second compound 10 µM)?
**A.** 9.51 µM

**Q.** And the viability, T/C [1]?
**A.** 95.8%

**Q.** What about the viability, T/C [2] of the same compound?
**A.** 102%

**Q.** And the viability, T/C [3]?
**A.** 85.3%

**Q.** What about the viability, T/C [4] of the same compound?
**A.** 94%

**Q.** And the viability, T/C [25]?
**A.** 70.9%

**Q.** And the viability, T/C [26]?
**A.** 61.5%

**Q.** And the viability, T/C [5]?
**A.** 94.8%

**Q.** And the viability, T/C [6]?
**A.** 95.5%

**Q.** And the viability, T/C [7]?
**A.** 94.1%

**Q.** And the viability, T/C [8]?
**A.** 77.9%

**Q.** What about the viability, T/C [27] of the same compound?
**A.** 80.6%

**Q.** And the viability, T/C [28]?
**A.** 50.8%

**Q.** What about the viability, T/C [9] of the same compound?
**A.** 95.4%

**Q.** And the viability, T/C [10]?
**A.** 101%

**Q.** What about the viability, T/C [11] of the same compound?
**A.** 88.6%

**Q.** And the viability, T/C [12]?
**A.** 85.1%

**Q.** And the viability, T/C [29]?
**A.** 73.4%

**Q.** What about the viability, T/C [30] of the same compound?
**A.** 48.8%

**Q.** And the viability, T/C [13]?
**A.** 94.4%

**Q.** What about the viability, T/C [14] of the same compound?
**A.** 96.5%

**Q.** What about the viability, T/C [15] of the same compound?
**A.** 85.4%

**Q.** What about the viability, T/C [16] of the same compound?
**A.** 81.4%

**Q.** What about the viability, T/C [31] of the same compound?
**A.** 76.7%

**Q.** And the viability, T/C [32]?
**A.** 47.2%

**Q.** And the viability, T/C [17]?
**A.** 105%

**Q.** And the viability, T/C [18]?
**A.** 106%

**Q.** And the viability, T/C [19]?
**A.** 80.5%

**Q.** What about the viability, T/C [20] of the same compound?
**A.** 81.7%

**Q.** And the viability, T/C [33]?
**A.** 78%

**Q.** And the viability, T/C [34]?
**A.** 48.9%

**Q.** What about the viability, T/C [21] of the same compound?
**A.** 107%

**Q.** And the viability, T/C [22]?
**A.** 102%

**Q.** What about the viability, T/C [23] of the same compound?
**A.** 68.4%

**Q.** What about the viability, T/C [24] of the same compound?
**A.** 93.3%

**Q.** And the viability, T/C [35]?
**A.** 67.4%

**Q.** What about the viability, T/C [36] of the same compound?
**A.** 44.7%

**Q.** Which results are given for Nc1ccn(C2OC(CO)C(O)C2(F)F)c(=O)n1 (stereo unspecified) + Cc1cccc(N(C)C(=O)C2C(O)CCN2c2nc(C)cc(C(F)(F)F)c2C#N)c1?
**A.** IC50 (second compound 0.0316 µM): 0.0423 µM; IC50 (second compound 0.1 µM): 0.0536 µM; IC50 (second compound 0.316 µM): 0.058 µM; IC50 (second compound 1 µM): 0.0498 µM; IC50 (second compound 3.16 µM): 0.0575 µM; IC50 (second compound 10 µM): 0.0593 µM; viability, T/C [1]: 55.2%; viability, T/C [2]: 36.6%; viability, T/C [3]: 22.8%; viability, T/C [4]: 30.8%; viability, T/C [25]: 29.6%; viability, T/C [26]: 27%; viability, T/C [5]: 62.2%; viability, T/C [6]: 37.8%; viability, T/C [7]: 23.4%; viability, T/C [8]: 28.1%; viability, T/C [27]: 40.2%; viability, T/C [28]: 28.8%; viability, T/C [9]: 66.7%; viability, T/C [10]: 36.1%; viability, T/C [11]: 26%; viability, T/C [12]: 25.7%; viability, T/C [29]: 34.4%; viability, T/C [30]: 28.9%; viability, T/C [13]: 61.9%; viability, T/C [14]: 32.2%; viability, T/C [15]: 25.4%; viability, T/C [16]: 28.8%; viability, T/C [31]: 26.7%; viability, T/C [32]: 27.1%; viability, T/C [17]: 62.5%; viability, T/C [18]: 40.4%; viability, T/C [19]: 25.5%; viability, T/C [20]: 29.4%; viability, T/C [33]: 28.2%; viability, T/C [34]: 26.8%; viability, T/C [21]: 63.9%; viability, T/C [22]: 40.5%; viability, T/C [23]: 26%; viability, T/C [24]: 27.1%; viability, T/C [35]: 30.1%; viability, T/C [36]: 26.2%
